Source: patent publication US7517517B2 (Janssen Pharmaceutica N.V., priority 2002, dated 2009)
Structures can show the parent of a compound that is named as a salt.

How the values were obtained:
[1] = biological target: T1, cloned rat mGlu1 receptor (Rattus norvegicus, UniProt P23385); test: Signal transduction at the cloned rat mGlu1 receptor in CHO cells (glutamate-induced Ca2+ rise, FLIPR); type: cell-based
T1 construct: expressed in transfected cells; host or cells: CHO cells

rat mGlu1a receptor = biological target: T2, rat mGlu1a receptor (Rattus norvegicus, UniProt P23385); test: [3H]Compound A binding to rat mGlu1a receptor CHO-dhfr− membranes (saturation, kinetics, inhibition); details: rat mGlu1a receptor CHO-dhfr− membranes
T2 construct: host or cells: CHO-dhfr- cells
T2 sequence (P23385 19-1199): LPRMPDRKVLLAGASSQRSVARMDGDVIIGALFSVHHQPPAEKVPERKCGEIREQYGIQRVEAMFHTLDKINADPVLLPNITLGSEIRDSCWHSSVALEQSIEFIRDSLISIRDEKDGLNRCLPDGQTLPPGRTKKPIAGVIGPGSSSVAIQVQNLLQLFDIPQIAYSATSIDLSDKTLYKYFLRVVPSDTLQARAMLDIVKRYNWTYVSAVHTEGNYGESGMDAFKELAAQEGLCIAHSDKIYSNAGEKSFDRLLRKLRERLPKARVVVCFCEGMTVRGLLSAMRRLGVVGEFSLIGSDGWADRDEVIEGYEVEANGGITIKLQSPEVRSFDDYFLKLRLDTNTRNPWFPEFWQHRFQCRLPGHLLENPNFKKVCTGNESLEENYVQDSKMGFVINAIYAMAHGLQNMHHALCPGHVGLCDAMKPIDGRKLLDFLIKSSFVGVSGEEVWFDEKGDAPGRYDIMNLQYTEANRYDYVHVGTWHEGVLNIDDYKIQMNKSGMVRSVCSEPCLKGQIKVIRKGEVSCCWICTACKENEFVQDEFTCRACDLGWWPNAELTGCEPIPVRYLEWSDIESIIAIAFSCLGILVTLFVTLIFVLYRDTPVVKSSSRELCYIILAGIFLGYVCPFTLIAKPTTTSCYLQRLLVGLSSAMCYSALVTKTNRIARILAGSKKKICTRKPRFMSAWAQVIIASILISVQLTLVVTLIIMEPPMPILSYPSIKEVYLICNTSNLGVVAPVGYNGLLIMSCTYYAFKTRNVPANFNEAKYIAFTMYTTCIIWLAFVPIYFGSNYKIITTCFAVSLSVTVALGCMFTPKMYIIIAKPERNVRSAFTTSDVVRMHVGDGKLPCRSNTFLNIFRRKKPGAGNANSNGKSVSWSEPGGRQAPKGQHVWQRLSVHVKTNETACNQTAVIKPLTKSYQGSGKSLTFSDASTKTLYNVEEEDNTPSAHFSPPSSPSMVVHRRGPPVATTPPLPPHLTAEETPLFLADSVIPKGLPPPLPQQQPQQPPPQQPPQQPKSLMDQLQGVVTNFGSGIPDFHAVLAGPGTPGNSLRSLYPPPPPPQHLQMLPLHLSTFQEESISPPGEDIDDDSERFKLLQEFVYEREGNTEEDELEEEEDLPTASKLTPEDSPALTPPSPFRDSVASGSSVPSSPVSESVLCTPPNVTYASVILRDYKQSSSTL

[2] = 50% inhibition of the glutamate-induced intracellular Ca2+ rise, CHO cells, FLIPR
[3] = inhibition of glutamate-induced intracellular Ca2+ rise, CHO cells expressing mGlu1 receptor, compounds with pIC50 between 7 and 8

T1 sequence (P23385 19-1199): as above

Structure (SMILES): Cc1cc2cc(C(=O)C3CCCCC3)ccc2[nH]c1=O [Compound 50, 6-(cyclohexylcarbonyl)-3-methyl-2(1H)-quinolinone]
- melting point: 256.1 °C

Structure (SMILES): CCc1cc2cc(C(=O)C3CCC(OC)CC3)ccc2nc1-c1ccsc1 (stereo not drawn) [Compound 31]
- melting point: 113 °C

Structure (SMILES): CCc1cc2cc(/C=C/c3ccccc3)ccc2nc1C [Compound 471]
- melting point: 140 °C

Structure (SMILES): CCOC(=O)c1cc2cc(C(=O)Cc3ccccc3)ccc2nc1C [Compound 306]
- melting point: 136 °C

Structure (SMILES): CCc1cc2cc(C(=O)C3Cc4ccccc4C3)ccc2nc1Cl [Compound 3]
- melting point: 145 °C

Structure (SMILES): CCc1cc2cc(C(=O)C3CCC(OC)CC3)ccc2nc1F (stereo not drawn) [Compound 19]
- melting point: 92 °C

Structure (SMILES): CCc1cc2cc(C(=O)[C@H]3CC[C@H](OC)CC3)ccc2nc1F [Compound 20]
- melting point: 114 °C

Structure (SMILES): CCc1cc2cc(C(=O)C3CCC(OC)CC3)ccc2nc1-c1ccccc1 (stereo not drawn) [Compound 29]
- melting point: 112 °C

Structure (SMILES): CCc1cc2cc(C(=O)[C@H]3CC[C@@H](OC)CC3)ccc2nc1Cl [Compound 4]
- melting point: 123 °C

Structure (SMILES): C=Cc1nc2ccc(C(=O)C3CCC(OC)CC3)cc2cc1CC (stereo not drawn) [Compound 28]
- melting point: 108 °C

Structure (SMILES): CCc1cc2cc(C(=O)[C@H]3CC[C@@H](OC)CC3)ccc2nc1NCCOC [Compound 10]
- melting point: 115 °C

Structure (SMILES): CCc1cc2cc(C(=O)[C@H]3CC[C@@H](OC)CC3)ccc2nc1C#N [Compound 22]
- melting point: 138 °C

Structure (SMILES): CCc1cc2cc(C(=O)C3CCC(OC)CC3)ccc2nc1C(C)=O (stereo not drawn) [Compound 6]
- melting point: 108 °C

Structure (SMILES): COC1CCC(F)(C(=O)c2ccc3nc4c(cc3c2)CCCO4)CC1 (stereo not drawn) [Compound 488]
- IC50 [1, 2]: 5.37 nM

Structure (SMILES): CCc1cc2cc(C(=O)[C@H]3CC[C@@H](OC)CC3)ccc2nc1I [Compound 21]
- melting point: 110 °C

Structure (SMILES): Cc1cc2nc3c(cc2cc1C(=O)Cc1ccccc1)CCCO3 [Compound 504]
- IC50 [1, 2]: 5.37 nM

Structure (SMILES): O=C(c1ccc2nc3c(cc2c1)CCS3)[C@H]1CC[C@H](O)CC1 [Compound 422]
- IC50 [1, 3]: 95.5 nM

Structure (SMILES): N[C@H](C(=O)O)c1ccc(C(=O)O)c(O)c1 [(S)-4C-3HPG, reference compound]
- inhibition of [3H]Compound A binding (in words) (rat mGlu1a receptor): did not inhibit

Structure (SMILES): c1ccc2c(-c3ccc4nc5c(cc4c3)CCS5)noc2c1 [Compound 514]
- melting point: 185 °C

Structure (SMILES): O=C(Cc1ccccc1)c1ccc2nc3sccc3cc2c1 [Compound 462]
- IC50 [1, 3]: 12.6 nM

Structure (SMILES): COc1ccc2cc(C(=O)[C@H]3CC[C@@H](OC)CC3)ccc2n1 [Compound 91]
- IC50 [1, 3]: 37.2 nM

Structure (SMILES): O=C(c1ccc2nc3c(cc2c1)CCCO3)C12CC3CC(CC(C3)C1)C2 [Compound 433]
- IC50 [1, 3]: 16.2 nM

Structure (SMILES): CCc1cc2cc(C(=O)C3CCC(OC)CC3)ccc2[nH]c1=O (stereo not drawn) [Compound 9]
- melting point: 226 °C

Structure (SMILES): COC1CCC(C(=O)c2ccc3nc4c(cc3c2)CCCO4)=CO1 (stereo not drawn) [Compound 460]
- IC50 [1, 3]: 45.7 nM

Structure (SMILES): COCc1cc2cc(C(=O)[C@H]3CC[C@H](OC)CC3)ccc2nc1C [Compound 286]
- IC50 [1, 3]: 93.3 nM

Structure (SMILES): O=C(Cc1ccccc1)c1ccc2nc3c(cc2c1)CCCO3 [Compound 432]
- IC50 [1, 2]: 5.79 nM

Structure (SMILES): CCOCC(=O)Nc1nc2ccc(C(=O)C3CCC(OC)CC3)cc2cc1CC (stereo not drawn) [Compound 326]
- IC50 [1, 3]: 38.9 nM

Structure (SMILES): O=C(Cc1ccccc1)c1ccc2nc3c(cc2c1)CCS3 [Compound 441]
- IC50 [1, 3]: 11.2 nM

Structure (SMILES): CCc1cc2cc(C(=O)C3CCC(OC)CC3)ccc2nc1NC(=O)C1CCCCC1 (stereo not drawn) [Compound 344]
- IC50 [1, 3]: 30.2 nM

Structure (SMILES): O=C(Cc1ccc(F)cc1)c1ccc2nc3c(cc2c1)CCCS3 [Compound 483]
- IC50 [1, 3]: 13.8 nM

Structure (SMILES): CCc1cc2cc(C(=O)C3CCC(OC)CC3)ccc2nc1NC(=O)C1CCC(OC)CC1 (stereo not drawn) [Compound 343]
- IC50 [1, 3]: 46.8 nM

Structure (SMILES): CCCc1cc2cc(C(=O)CC3CC4CCC3C4)ccc2nc1C (stereo not drawn) [Compound 307]
- IC50 [1, 3]: 77.6 nM

Structure (SMILES): CCc1cc2cc(C(=O)C34CCC(CC3)C4)ccc2nc1C [Compound 300]
- IC50 [1, 3]: 83.2 nM

Structure (SMILES): CCc1cc2cc(C(=O)[C@H]3CC[C@@H](OC)CC3)c(C)cc2[nH]c1=O [Compound 419]
- IC50 [1, 2]: 8.61 nM

Structure (SMILES): CO[C@H]1CC[C@H](C(=O)c2ccc3nc4c(cc3c2)CCCO4)CC1 [Compound 175]
- IC50 [1, 3]: 19.5 nM

Structure (SMILES): CCc1cc2cc(C(=O)[C@H]3CC[C@H](OC)CC3)ccc2nc1C [Compound 131]
- IC50 [1, 3]: 64.6 nM

Structure (SMILES): CCc1cc2cc(C(=O)Cc3ccccc3)ccc2nc1N [Compound 289]
- IC50 [1, 3]: 53.7 nM

Structure (SMILES): O=C(Cc1ccccc1)c1ccc2nc3c(cc2c1)CCC3 [Compound 446]
- IC50 [1, 3]: 27.5 nM

Structure (SMILES): O=C(Cc1ccccc1F)c1ccc2nc3c(cc2c1)CCCS3 [Compound 499]
- IC50 [1, 2]: 10 nM

Structure (SMILES): CCc1cc2cc(C(=O)C3(F)CCC(OC)CC3)ccc2nc1C (stereo not drawn) [Compound 224]
- IC50 [1, 3]: 16.6 nM

Structure (SMILES): O=C(c1ccc2nc3c(cc2c1)CCCO3)C1CCc2ccccc2C1 (stereo not drawn) [Compound 436]
- IC50 [1, 3]: 55 nM

Structure (SMILES): O=C(c1ccc2nc3c(cc2c1)CCS3)[C@H]1CC[C@@H](O)CC1 [Compound 421]
- IC50 [1, 3]: 11.5 nM

Structure (SMILES): CCc1cc2cc(C(=O)C3CCC(OC)CC3)ccc2nc1NC(=O)CSCc1ccccc1 (stereo not drawn) [Compound 332]
- IC50 [1, 3]: 67.6 nM

Structure (SMILES): CCc1cc2cc(C(=O)C3CCC(OC)CC3)ccc2nc1NC(=O)c1ccc(OC)cc1 (stereo not drawn) [Compound 323]
- IC50 [1, 3]: 52.5 nM

Structure (SMILES): CCc1cc2cc(C(=O)[C@H]3CCC[C@H](OC)C3)ccc2nc1Cl (relative stereo) [Compound 239]
- IC50 [1, 3]: 20 nM

Structure (SMILES): CCc1cnc2ccc(C(=O)C3CCC(OC)CC3)cc2c1 (stereo not drawn) [Compound 25]
- melting point: 88 °C

Structure (SMILES): O=C(c1ccc2nc3c(cc2c1)CCCO3)C1CC2CCC1O2 (stereo not drawn) [Compound 456]
- IC50 [1, 3]: 35.5 nM

Structure (SMILES): CCc1cc2cc(C(=O)[C@H]3CC[C@@H](OC)CC3)ccc2nc1NC(=O)c1ccc(=O)[nH]c1 [Compound 191]
- IC50 [1, 3]: 69.2 nM

Structure (SMILES): CCc1cc2cc(-c3cc4c(o3)CCCC4)ccc2nc1C (as salt: HCl) [Compound 526]
- melting point: 248 °C

Structure (SMILES): CC1CCC(C(=O)c2ccc3nc4c(cc3c2)CCS4)CC1 (stereo not drawn) [Compound 431]
- IC50 [1, 3]: 24.5 nM

Structure (SMILES): CCc1cc2cc(C(=O)C3CCC(OC)CC3)c(C)cc2nc1Cl (stereo not drawn) [Compound 210]
- IC50 [1, 2]: 4.84 nM

Structure (SMILES): CCCO[C@H]1CC[C@@H](C(=O)c2ccc3nc(C)c(CC)cc3c2)CC1 [Compound 255]
- IC50 [1, 3]: 58.9 nM

Structure (SMILES): O=C(Cc1cccc(F)c1)c1ccc2nc3c(cc2c1)CCCO3 [Compound 473]
- IC50 [1, 3]: 47.9 nM

Structure (SMILES): CCCc1cc2cc(C(=O)Cc3ccccc3)ccc2nc1C [Compound 290]
- IC50 [1, 3]: 87.1 nM

Structure (SMILES): COC1CCC(C(=O)c2ccc3nc4c(cc3c2)CCCC4)CC1 (stereo not drawn) [Compound 420]
- IC50 [1, 2]: 7.33 nM

Structure (SMILES): CCc1cc2cc(C(=O)C3(c4ccccc4)CC3)ccc2nc1C [Compound 283]
- IC50 [1, 3]: 95.5 nM

Structure (SMILES): O=C(c1ccc2nc3c(cc2c1)CCS3)C12CC3CC(CC(C3)C1)C2 [Compound 449]
- IC50 [1, 3]: 17 nM

Structure (SMILES): CCc1cc2cc(C(=O)CC3CCCCC34OCCO4)ccc2nc1Cl (stereo not drawn) [Compound 243]
- IC50 [1, 3]: 51.3 nM

Structure (SMILES): O=C(c1ccc2nc3c(cc2c1)CCS3)C1COc2ccccc2C1 (stereo not drawn) [Compound 466]
- IC50 [1, 3]: 79.4 nM

Structure (SMILES): CCc1cc2cc(C(=O)C3CCC(OC)CC3)ccc2nc1NC(=O)CCCc1ccc(OC)c(OC)c1 (stereo not drawn) [Compound 341]
- IC50 [1, 3]: 14.8 nM

Structure (SMILES): CCc1cc2cc(/C(=N\N)C3CCC(OC)CC3)ccc2nc1OC (stereo not drawn) [Compound 53]
- melting point: 110 °C

Structure (SMILES): CCc1cc2cc(C(=O)C3(F)CCC(OC)CC3)ccc2nc1Cl (single isomer, unassigned) [Compound 221]
- IC50 [1, 3]: 61.7 nM

Structure (SMILES): CCCc1cc2cc(C(=O)C3CC4CCC3C4)ccc2nc1C (stereo not drawn) [Compound 318]
- IC50 [1, 3]: 95.5 nM

Structure (SMILES): O=C(Cc1ccc(Br)cc1)c1ccc2nc3c(cc2c1)CCCO3 [Compound 498]
- IC50 [1, 3]: 16.6 nM

Structure (SMILES): CCc1cc2cc(C(=O)Cc3ccccc3)ccc2nc1C [Compound 237]
- IC50 [1, 2]: 9.77 nM

Structure (SMILES): CCc1cc2cc(C(=O)C3CCC(OC)CC3)ccc2nc1-c1cccs1 (stereo not drawn) [Compound 30]
- melting point: 142 °C

Structure (SMILES): O=C(CC1CC2CCC1C2)c1ccc2nc(Cl)ccc2c1 (stereo not drawn) [Compound 313]
- IC50 [1, 3]: 44.7 nM

Structure (SMILES): O=C(CCc1ccccc1)c1ccc2nc3c(cc2c1)CCS3 [Compound 448]
- IC50 [1, 3]: 49 nM

Structure (SMILES): Cc1cc2cc3c(cc2cc1C(=O)Cc1ccccc1)CCCS3 [Compound 506]
- IC50 [1, 2]: 3.31 nM

Structure (SMILES): CCc1cc2cc(C(=O)C3CC4CC3CC4O)ccc2nc1Cl (stereo not drawn) [Compound 280]
- IC50 [1, 3]: 45.7 nM

Structure (SMILES): O=C(Cc1ccccc1F)c1ccc2nc3c(cc2c1)CCCO3 [Compound 477]
- IC50 [1, 2]: 5.62 nM

Structure (SMILES): CCc1cc2cc(C(=O)C3CCC(OC)CC3)ccc2nc1NC(=O)C1CCN(C(C)=O)CC1 (stereo not drawn) [Compound 333]
- IC50 [1, 3]: 38.9 nM

Structure (SMILES): CCc1cc2cc(-c3cc4ccccc4o3)ccc2nc1C [Compound 515]
- melting point: 134 °C

Structure (SMILES): CCc1cc2cc(C(=O)CC(C)C)ccc2nc1Cl [Compound 2]
- melting point: 82 °C

Structure (SMILES): CCc1cc2cc(C(=O)C3CCC(OC)CC3)ccc2nc1NC(=O)C12CC3CC(CC(C3)C1)C2 (stereo not drawn) [Compound 199]
- IC50 [1, 3]: 85.1 nM

Structure (SMILES): O=C(Cc1ccccc1)c1ccc2nc3c(cc2c1)CCCS3 [Compound 439]
- IC50 [1, 2]: 9.48 nM

Structure (SMILES): CCc1cc2cc(C(=O)C3(C)CCC(OC)CC3)ccc2nc1C (stereo not drawn) [Compound 242]
- IC50 [1, 3]: 17.4 nM

Structure (SMILES): COC1CCC(C(=O)c2ccc3nc4c(cc3c2)CCCO4)CC1 (stereo not drawn) [Compound 174]
- IC50 [1, 2]: 3.24 nM
